# Values quoted from earlier work, collected in patent US8242172B2, “2,2-dimethylbutyric acid oral pharmaceutical compositions” (Trustees of Boston University, priority 1998, dated 2012).
# Key:
# ΔF508-CFTR [1] = target: T1, ΔF508-CFTR (Homo sapiens, UniProt P13569, DEL508-508); settings: 1 M or 10%
# ΔF508-CFTR [2] = target: T1, ΔF508-CFTR; settings: up to 300 mM
# ΔF508-CFTR [3] = settings: 5 mM, 24 hours, C-127 cells
# IB3-1 cells = settings: equimolar concentrations (1-2 mM)
# ΔF508-CFTR [4] = target: T1, ΔF508-CFTR; set-up: primary cultures of nasal polyp epithelia from CF patients (ΔF508 homozygous or heterozygous); endogenous in cells; host or cells: primary nasal polyp epithelia from CF patients; IB3-1 CF bronchial epithelial cell line; settings: 0.1 and 2 mM, up to 7 days in culture; primary nasal polyp epithelia from CF patients or IB3-1
# CF patients = settings: human, in vivo
# ΔF508-CFTR [5] = target: T1, ΔF508-CFTR; set-up: primary cultures of nasal polyp epithelia from CF patients (ΔF508 homozygous or heterozygous); endogenous in cells; host or cells: primary nasal polyp epithelia from CF patients; IB3-1 CF bronchial epithelial cell line; settings: IB3-1 cells, 2.5 mM
# ΔF508-CFTR [6] = settings: IB3-1 cells, 0.1-1 mM; primary nasal epithelia, 5 mM
# T1 sequence (P13569 with tags, fused parts or gaps DEL508-508): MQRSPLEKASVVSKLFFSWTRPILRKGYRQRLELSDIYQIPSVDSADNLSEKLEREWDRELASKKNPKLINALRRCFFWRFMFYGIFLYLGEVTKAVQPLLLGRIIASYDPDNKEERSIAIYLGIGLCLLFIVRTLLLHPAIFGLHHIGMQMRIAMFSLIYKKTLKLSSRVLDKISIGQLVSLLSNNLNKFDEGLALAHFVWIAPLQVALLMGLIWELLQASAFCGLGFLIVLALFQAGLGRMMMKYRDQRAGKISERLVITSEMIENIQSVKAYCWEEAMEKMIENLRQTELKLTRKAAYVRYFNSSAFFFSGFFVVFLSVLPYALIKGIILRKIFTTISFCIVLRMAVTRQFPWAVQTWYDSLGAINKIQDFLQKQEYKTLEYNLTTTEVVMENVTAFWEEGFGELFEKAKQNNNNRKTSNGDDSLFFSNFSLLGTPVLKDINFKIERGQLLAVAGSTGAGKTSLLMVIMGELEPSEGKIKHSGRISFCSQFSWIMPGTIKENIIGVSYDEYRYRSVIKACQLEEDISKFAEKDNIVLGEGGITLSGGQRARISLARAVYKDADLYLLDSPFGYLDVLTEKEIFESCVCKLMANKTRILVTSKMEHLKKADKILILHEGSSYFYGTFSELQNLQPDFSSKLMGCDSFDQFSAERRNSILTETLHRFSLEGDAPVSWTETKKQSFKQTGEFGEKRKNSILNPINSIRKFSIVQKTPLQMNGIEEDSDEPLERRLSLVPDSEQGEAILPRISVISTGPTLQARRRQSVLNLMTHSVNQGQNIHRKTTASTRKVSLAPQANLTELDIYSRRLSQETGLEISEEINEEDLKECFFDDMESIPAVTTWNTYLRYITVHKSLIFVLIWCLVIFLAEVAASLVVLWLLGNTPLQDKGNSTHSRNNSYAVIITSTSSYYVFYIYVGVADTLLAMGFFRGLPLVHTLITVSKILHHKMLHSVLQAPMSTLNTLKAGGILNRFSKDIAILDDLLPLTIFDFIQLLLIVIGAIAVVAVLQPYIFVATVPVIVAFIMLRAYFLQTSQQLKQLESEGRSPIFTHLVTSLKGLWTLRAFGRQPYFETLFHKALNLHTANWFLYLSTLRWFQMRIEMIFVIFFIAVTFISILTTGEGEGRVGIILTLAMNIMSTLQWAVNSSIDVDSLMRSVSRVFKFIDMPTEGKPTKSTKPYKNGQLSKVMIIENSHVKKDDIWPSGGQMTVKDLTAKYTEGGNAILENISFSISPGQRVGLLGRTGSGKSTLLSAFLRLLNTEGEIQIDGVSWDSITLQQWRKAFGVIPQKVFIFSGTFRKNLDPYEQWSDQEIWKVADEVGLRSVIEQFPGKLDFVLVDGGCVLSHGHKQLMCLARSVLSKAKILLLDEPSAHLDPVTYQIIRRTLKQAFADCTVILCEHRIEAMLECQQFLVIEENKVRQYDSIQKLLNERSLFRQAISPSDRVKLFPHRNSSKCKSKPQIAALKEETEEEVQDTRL
compound,measurement,setting,value
OCC(O)CO [glycerol],movement of ΔF508-CFTR from the ER to the plasma membrane,ΔF508-CFTR [1],appears to facilitate movement of ΔF508-CFTR from the ER to the plasma membrane
"CCCC(=O)O [butyrate, butyric acid]",cAMP-stimulation indicative of chloride ion transport,ΔF508-CFTR [2],no increases in cAMP-stimulation was observed
same,~180-kD mature glycosylated species of CFTR,ΔF508-CFTR [3],not observed
same,ΔF508-CFTR mRNA by Northern analysis,ΔF508-CFTR [3],massive increase in ΔF508-CFTR mRNA
same,cell morphology and growth rate,IB3-1 cells,"morphologic changes in IB3-1 cells, with rounding of cells and decreased growth rate"
arginine butyrate,effectiveness at continuous administration,thalassemic patients; continuous administration at about 2000 mg/kg patient weight,effective
same,benefit measured by rise in fetal hemoglobin levels,"thalassemic patients; pulses, about 400 to 1500 mg/kg, thalassemic patients",surprisingly more beneficial
"O=C(O)CCCc1ccccc1 [4PBA, 4-phenylbutyrate]",forskolin-activated chloride secretion,ΔF508-CFTR [4],restoration of forskolin-activated chloride secretion
same,clinical tolerability,CF patients,not well tolerated
same,"protein kinase A-activated, linear, 10 pS chloride channels at plasma membrane",ΔF508-CFTR [5],chloride channels appeared at the plasma membrane
same,higher molecular mass forms of CFTR (immunoblot),ΔF508-CFTR [6],appearance of higher molecular mass forms of CFTR
